Results from patent publication US11866458B2, “Panaxadiol glycoside derivative and preparation method and application thereof” (SUZHOU JI ER BIOLOGICAL MEDICINE CO., LTD., priority 2018, dated 2024).

Columns and labels:
[1] = test system: COPD rats induced by smoke exposure; assay: COPD induced by smoke exposure in rats: lung function FEV0.2/FVC; assay type: in vivo, Wistar rats; settings: for FEV2/FVC % (FEV0.2/FVC %, forced expiratory index within 200 ms): 180 days; for effect in COPD rats compared with inhaled budesonide: high dose group, oral
[2] = test system: inflammatory cells in bronchoalveolar lavage fluid of mice; assay: Determination of inflammatory cells in bronchoalveolar lavage fluid of mice (OVA asthma model); assay type: in vivo, BALB/C mice; design: unit not given here; settings: oral
Protocol: 144 6-week-old BALB/C mice (18-20 g) were divided into 24 groups: control group, placebo group, dexamethasone group (3 mg/kg) and the drug groups. There were 6 in each group. The control group was given normal saline without any treatment. The other groups were sensitized by intraperitoneal injection of OVA 20 μg and aluminum hydroxide 200 μL PBC (2 mg, prepared into emulsion). […] On day 21, 22 and 23, the therapeutic agent (i.e. 3 mg/kg dexamethasone in the positive control group and oral administration in the drug group) was given orally. From day 17 to 23, PBS was given to the control group and placebo group respectively, PBS (without OVA) was given to the control group. On day 0 and day 14, the normal saline was nebulized for 30 minutes to remove the aluminum hydroxide on day 21, 22 and 23 See in Table 2.

[3] = test system: mouse asthma model induced by OVA; assay: Asthma induced by ovalbumin in Balb/c mice: IgE level in serum by ELISA; assay type: in vivo; settings: oral; for content of IgE in mice serum (conclusion in words): model of mouse asthma induced by OVA, samples; for therapeutic effect on bronchial asthma induced by OVA: mouse
[4] = Table 1-1 (1st time), 20 mg/kg, 24 hours after last OVA stimulation

| Structure (SMILES) | Acidic cells in bronchoalveolar lavage fluid ([2]; 2 mg/kg) | Neutral cells in bronchoalveolar lavage fluid ([2]; 2 mg/kg) | lymphocyte in bronchoalveolar lavage fluid ([2]; 2 mg/kg) | Acidic cells in bronchoalveolar lavage fluid ([2]; 20 mg/kg) | Neutral cells in bronchoalveolar lavage fluid ([2]; 20 mg/kg) | Total inflammatory cells in bronchoalveolar lavage fluid ([2]; 20 mg/kg) | lymphocyte in bronchoalveolar lavage fluid ([2]; 20 mg/kg) | Acidic cells in bronchoalveolar lavage fluid ([2]; 200 mg/kg) | Neutral cells in bronchoalveolar lavage fluid ([2]; 200 mg/kg) | Total inflammatory cells in bronchoalveolar lavage fluid ([2]; 200 mg/kg) | lymphocyte in bronchoalveolar lavage fluid ([2]; 200 mg/kg) | Concentration of IgE in serum [3, 4] [ng/mL] | Concentration of IgE in serum ([3]; Table 1-2 (2nd time), 15 mg/kg) [ng/mL] | Concentration of IgE in serum ([3]; Table 1-2 (2nd time), 30 mg/kg) [ng/mL] | Concentration of IgE in serum ([3]; Table 1-2 (2nd time), 60 mg/kg) [ng/mL] | FEV2/FVC % (FEV0.2/FVC %, forced expiratory index within 200 ms) ([1]; 20 mg/kg oral) [%] | FEV2/FVC % (FEV0.2/FVC %, forced expiratory index within 200 ms) ([1]; 40 mg/kg oral) [%] | FEV2/FVC % (FEV0.2/FVC %, forced expiratory index within 200 ms) ([1]; 80 mg/kg oral) [%] | effect in COPD rats compared with inhaled budesonide [1] | Total inflammatory cells in bronchoalveolar lavage fluid ([2]; 2 mg/kg) | further results |
| --- | --- | --- | --- | --- | --- | --- | --- | --- | --- | --- | --- | --- | --- | --- | --- | --- | --- | --- | --- | --- | --- |
| CCCC1O[C@@H]2C[C@H]3[C@@H]4CCC5=CC(=O)C=C[C@]5(C)[C@H]4[C@@H](O)C[C@]3(C)[C@]2(C(=O)CO)O1 (stereo partly shown) [Budesonide, reference compound] |  |  |  |  |  |  |  |  |  |  |  |  |  |  |  |  |  |  |  |  | FEV2/FVC % (FEV0.2/FVC %, forced expiratory index within 200 ms) ([1]; nebulized 0.25 mg/mL, 4 mL, 30 minutes): 79.47 ± 12.39 % |
| CC(C)=CCC[C@](C)(O[C@@H]1OC(CO)[C@@H](O)[C@H](O)C1O)C1CC[C@]2(C)C1/C(=N\O)CC1[C@@]3(C)CC/C(=N\O)C(C)(C)C3CC[C@]12C (stereo partly drawn) [IVA, 20(S)—O-β-D-glucopyranosyl dammarane-3,12-hydroxyl imino-24-ene-12-one] | 29.09 ± 4.83 | 9.15 ± 5.68 | 15.35 ± 9.23 | 15.83 ± 2.88 | 7.38 ± 3.09 | 32.46 ± 17.21 | 5.24 ± 3.34 | 4.45 ± 2.14 | 6.17 ± 4.09 | 14.69 ± 5.77 | 4.19 ± 3.48 | 1358.27 ± 248.70 | 2026.13 ± 273.15 | 1927.60 ± 151.61 | 1723.86 ± 167.59 | 66.25 ± 11.49 | 75.98 ± 9.26 | 88.33 ± 12.49 | superior to budesonide |  |  |
| CC(C)=CCC[C@](C)(O[C@@H]1OC(CO)[C@@H](O)[C@H](O)C1O)C1CC[C@]2(C)C1C(=O)CC1[C@@]3(C)CC[C@H](O)C(C)(C)C3CC[C@]12C (stereo partly drawn) [IB, 3β-hydroxyl-20(S)—O-β-D-glucopyranosyl dammarane-24-ene-12-one] | 31.19 ± 8.46 | 12.11 ± 7.22 | 10.07 ± 6.12 | 9.35 ± 4.16 |  | 25.18 ± 13.12 | 7.53 ± 4.95 | 5.14 ± 3.08 | 3.49 ± 2.37 | 12.53 ± 6.23 | 3.75 ± 2.18 | 1337.11 ± 216.28 | 2023.33 ± 203.47 | 1909.19 ± 121.73 | 1769.13 ± 164.34 | 65.14 ± 12.78 | 73.59 ± 10.81 | 82.16 ± 9.01 | superior to budesonide | 46.76 ± 25.18 |  |
| CC(C)=CCC[C@](C)(O[C@@H]1OC(CO)[C@@H](O)[C@H](O)C1O)C1CC[C@]2(C)C1C(=O)CC1[C@@]3(C)CC=CC(C)(C)C3CC[C@]12C (stereo partly drawn) [IH, 20(S)—O-β-D-glucopyranosyl dammarane-3, 24-diene-12-one] |  |  |  |  |  |  |  |  |  |  |  | 1191.08 ± 107.59 | 1682.40 ± 182.76 | 1311.37 ± 165.93 | 1150.59 ± 129.55 | 63.27 ± 14.65 | 73.59 ± 12.14 | 85.51 ± 15.27 | superior to budesonide |  | content of IgE in mice serum (conclusion in words) [3]: significantly reduce; therapeutic effect on bronchial asthma induced by OVA [3]: obvious therapeutic effect |
| CC(C)=CCC[C@](C)(O[C@@H]1OC[C@H](O)[C@H](O)C1O)C1CC[C@]2(C)C1[C@H](O)CC1[C@@]3(C)CC[C@H](O)C(C)(C)C3CC[C@]12C (stereo partly drawn) [IL, 20-O-α-L-arabinopyrauosyl-20(S)-panaxadiol glycoside] |  |  |  |  |  |  |  |  |  |  |  | 996.36 ± 102.45 | 1548.67 ± 190.16 | 1311.37 ± 154.37 | 1080.12 ± 131.23 | 71.15 ± 10.34 | 80.25 ± 8.79 | 89.62 ± 5.14 | superior to budesonide |  | content of IgE in mice serum (conclusion in words) [3]: significantly reduce; therapeutic effect on bronchial asthma induced by OVA [3]: obvious therapeutic effect |
| CC(C)=CCC[C@](C)(O[C@@H]1OC[C@@H](O)[C@H](O)C1O)C1CC[C@]2(C)C1[C@H](O)CC1[C@@]3(C)CC[C@H](O)C(C)(C)C3CC[C@]12C (stereo partly drawn) [IJ, 20-O-β-D-xylopyranosyl-20(S)-panaxadiol glycoside] |  |  |  |  |  |  |  |  |  |  |  | 1250.07 ± 144.38 | 2068.41 ± 153.29 | 1824.85 ± 155.74 | 1622.18 ± 130.38 | 65.78 ± 12.35 | 77.57 ± 9.69 | 84.36 ± 7.10 | superior to budesonide |  |  |
| CC(=O)O[C@H]1CC[C@@]2(C)C(CC[C@]3(C)C2CC(=O)C2C([C@](C)(CCC=C(C)C)O[C@@H]4OC(CO)[C@@H](O)[C@H](O)C4O)CC[C@]23C)C1(C)C (stereo partly drawn) [IA, 3-O-acetyl-20(S)—O-β-D-glucopyranosyl Dammarane-24-ene-12-one] | 29.23 ± 10.29 | 10.40 ± 6.48 | 11.81 ± 5.97 | 11.46 ± 4.12 | 6.38 ± 3.45 | 26.93 ± 15.01 | 8.84 ± 5.63 |  | 2.08 ± 2.01 | 10.85 ± 4.62 | 4.27 ± 3.16 |  |  |  |  |  |  |  |  | 40.75 ± 26.14 |  |
| COC(=O)C1O[C@@H](O[C@@](C)(CCC=C(C)C)C2CC[C@]3(C)C2C(=O)CC2[C@@]4(C)CC[C@H](OC(C)=O)C(C)(C)C4CC[C@]23C)C(O)[C@@H](O)[C@@H]1O (stereo partly drawn) [IA-1, 3-β-O-acetyl-20(S)—O-β-D-glucopyranuronic acid methyl ester dammarane-24-ene-12-one] | 26.55 ± 13.23 | 10.21 ± 6.07 | 13.22 ± 8.27 | 13.26 ± 3.92 | 3.95 ± 2.41 | 28.11 ± 14.91 | 4.76 ± 3.18 | 5.22 ± 3.31 | 3.75 ± 2.46 | 11.48 ± 4.39 | 3.82 ± 2.66 |  |  |  |  |  |  |  |  | 43.42 ± 26.14 |  |
| CC(C)=CCC[C@](C)(O[C@@H]1OC(C)[C@H](O)[C@H](O)C1O)C1CC[C@]2(C)C1[C@H](O)CC1[C@@]3(C)CC[C@H](O)C(C)(C)C3CC[C@]12C (stereo partly shown) [IK] |  |  |  |  |  |  |  |  |  |  |  | 1020.78 ± 136.94 | 1720.54 ± 165.49 | 1406.28 ± 171.05 | 1217.43 ± 162.75 | 67.67 ± 11.39 | 78.59 ± 6.12 | 85.56 ± 10.07 | superior to budesonide |  | content of IgE in mice serum (conclusion in words) [3]: significantly reduce; therapeutic effect on bronchial asthma induced by OVA [3]: obvious therapeutic effect |
